# Laboratory results taken from US20160251625A1, “METHOD FOR SCALABLE SKELETAL MUSCLE LINEAGE SPECIFICATION AND CULTIVATION” (THE CURATORS OF THE UNIVERSITY OF MISSOURI, priority 2013, published 2016).
# Experiments:
# [1] = system: murine C2C12 myoblast; assay: terminal differentiation of C2C12 myoblasts, scored by size and extent of myotube formation; type: cell-based; settings: low-mitogen differentiation cultures (2% horse serum/DMEM)
# [2] = system: O2K cell line; assay: cell death / survival of differentiating O2K (phase contrast, cell adhesion, CPP32 cleavage, Annexin V); type: cell-based, porcine; settings: SRM basal medium without hLIF, DOX, PD032591 and PD173074
# From the text: (§1) 1. As CHIR99021 repressed cell death, supported differentiation toward paraxial mesoderm by the differentiating O2K cell line and enhanced terminal differentiation by the C2C12 cell line, precedent was established to retain the compound in all culture stages.
# TUBA is detected an internal protein loading control.
# [3] = system: O2K cell line; assay: differentiation marker Western blot (PAX3, POU5F1, KLF4) in O2K; type: cell-based, porcine; settings: differentiating O2K, CHIR99021 supplemented basal medium
# From the text: as §1
# TUBA detected as an internal protein loading control. FIG. 13A indicates ratios of p-CTNNB1/CTNNB1 bands. FIG. 13B indicates ratios of CTNNB1/TUBA bands. […] TUBA detection is shown as an internal protein loading control.
# [4] = system: CTNNB1; assay: Western blot of CTNNB1 level and phosphorylation in differentiating O2K; type: cell-based, porcine; settings: primordial differentiation
# From the text: TUBA detected as an internal protein loading control. […] TUBA detection is shown as an internal protein loading control.
# [5] = system: piPSC-derived myotubes; assay: calcium transient activity (Fluo-4 AM) in piPSC-derived myotubes; type: cell-based, porcine; settings: d6 myotubes, 10 mM, field of view
# From the text: To quantify contraction cycles, myotube cultures were stained with Fluo-4 AM calcium dye, washed, and image sequences were captured by confocal microscopy. Dynamic signaling events of an entire field of view (FOV) or single cells were traced and plotted over the imaging course. [s]=seconds.
# [6] = system: undifferentiated O2KM; assay: 5AC tolerance of undifferentiated O2KM; type: cell-based, porcine
# Procedure: (§2) 5AC exposure prior to, during, and following E2-mediated induction of ‘MyoDER’ was introduced to enable terminal-differentiation of O2KM from myocytes into refractive, filamentous myotubes. The murine C2C12 cell line was used as positive control to screen for optimal conditions for terminal differentiation by O2KM. […] 5AC, a small-molecule epigenetic modulator, was determined previously to enable skeletal muscle transcription in cell lines non-permissive to myogenesis. Moreover, 5AC exposure was further determined to enhance terminal differentiation by the C2C12 cell line.
# [7] = system: O2KM cell line; assay: 5AC effects on MYF5 expression and terminal differentiation of O2KM; type: cell-based, porcine
# Procedure: Therefore, a epigenetic modulator was used to enhance the expression of myogenic genes in cells otherwise non-permissive to myogenesis and enhance terminal differentiation of lineage committed myoctes to mature myofibers. […] This distinction may explained by the enhanced expression of the myogenic transcription factor MYF5 observed only in the 5AC-exposed O2KM prior to and following 48 hours of DOX withdrawal
# as §2
# N-2 and B-27 supplements were used exclusively as serum replacements. Cultures were differentiated for up to 6d following under 20% O2 following induction regimens (FIG. 20A). […] Contractile potential of terminally differentiating skeletal muscle myotubes was validated by (1) structural development of well-organized sarcomeres, as shown in FIG. 20G; (2) asynchronous spontaneous contraction, as shown in FIG. 21A; (3) contractile stimulation and synchronization by field stimulation, as shown in FIG. 21B; (4) caffeine-stimulated contraction, as shown in FIG. 21C; and (5) acetylcholine-stimulated contraction, as shown in FIG. 21D.
# piPSC modification with an integrated MyoDER expression cassette. […] Arrows and boxes indicate promoter and gene sequences, respectively. […] MyoDER was detected with an antibody raised against a MyoD peptide. […] Endogenous MYOD1 (˜45 kD, expected) was not detected. […] Double Arrow: Partially resolved MYOG isoforms. FIGS. 19A and 19B. Determinants of MYF5 activation: Western blot analyses. […] In the absence of CHIR99021, the 17 kD cleaved caspase isoform was not observed in the KOSR supplemented differentiation milieu, as in contrast to observations in the N-2 and B-27 supplemented differentiation milieu (FIG. 17A, FIG. 19A). […] MYODER-modified piPSC were cultured 3 days in self-renewal or expansion milieu. […] TUBA is detected as an internal protein loading control.
smiles,measurement,setting,value
Cc1c[nH]c(-c2cnc(NCCNc3ccc(C#N)cn3)nc2-c2ccc(Cl)cc2Cl)n1 [CHIR99021],terminal differentiation of C2C12 into skeletal myotubes,[1],enhanced terminal differentiation into skeletal myotubes
same,cell survival during differentiation,[2],supported both cell survival during differentiation
same,"paraxial mesoderm lineage specification (PAX3 expression, loss of POU5F1 and KLF4)",[3],supported pre-myogenic paraxial mesoderm lineage specification of differentiating O2K
same,CTNNB1 stabilization and phosphorylation status,[4],"stabilizes and modulates the phosphorylation status of the GSK3β substrate, CTNNB1"
Cn1c(=O)c2c(ncn2C)n(C)c1=O [caffeine],calcium transient activation,[5],calcium transient activation
"Nc1ncn([C@@H]2O[C@H](CO)[C@@H](O)[C@H]2O)c(=O)n1 [5AC, 5-Aza-Cytidine]",highest dose tolerated,[6],250 nM
same,MYF5 expression after expansion culture,"[7]; MyoDER-modified piPSC, 3 days, in the presence of DOX and CHIR99021",supported detectable MYF5 expression levels
same,MYF5 expression,[7]; O2KM derived myocytes cultured in the presence of 5AC,MYF5 expression was enhanced
same,myotube morphology in terminal differentiation,[7]; O2KM exposed to 5AC during expansion and induction regimens,"formed refractive, anisotropic myotubes"
same,"activation of endogenous MYF5 expression, dependence on CHIR99021","[7]; unmodified piPSC, 2d differentiation milieu with KOSR, no 3i, DOX, hLIF, E2",dependent upon simultaneous CHIR99021 exposure
